Measured values from the supplement of paper PMC10307832.

Assays:
Experiment in all cases: relative viability (nuclei count vs DMSO), 5 days (fraction); higher = more cells survive
[1] = compound: C#Cc1cccc(Nc2ncnc3cc(OC)c(OCCCCCCC(=O)NO)cc23)c1 [CUDC-101] + CS(=O)(=O)CCNCc1ccc(-c2ccc3ncnc(Nc4ccc(OCc5cccc(F)c5)c(Cl)c4)c3c2)o1 [Lapatinib] (partner 2 µM)
Method in brief: (§1)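 After 5 days of treatment, lung cancer cells in 1536-well plates were fixed and stained in a single step (final 0.05% Triton X-100, 1% formaldehyde, 1 ug/ml Hoechst) and their nuclei counted on 4× images. Treatment had been applied by pin tool the day after seeding as one drug alone or as a fixed anchor-drug dose with five library-drug doses (not always all listed) in √10 steps. Relative viability is the nuclei count of treated wells divided by that of vehicle wells, and values are medians of duplicate plates.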

[2] = compound: C1=CC=C2C(=C1)N=C(S2)C(C#N)C3=NC(=NC=C3)NCCC4=CN=CC=C4 + CC(=O)Nc1cccc(-n2c(=O)n(C3CC3)c(=O)c3c(Nc4ccc(I)cc4F)n(C)c(=O)c(C)c32)c1 [Trametinib] (partner 0.02 µM)
Method in brief: as §1

[3] = compound: COc1cc(N2CCC(N3CCN(C)CC3)CC2)ccc1Nc1ncc(Cl)c(Nc2ccccc2S(=O)(=O)C(C)C)n1 [NVP-TAE684] + CC1(C)CCC(c2ccc(Cl)cc2)=C(CN2CCN(c3ccc(C(=O)NS(=O)(=O)c4ccc(N[C@H](CCN5CCOCC5)CSc5ccccc5)c(S(=O)(=O)C(F)(F)F)c4)cc3)CC2)C1 [Navitoclax] (partner 0.5 µM)
Method in brief: as §1

[4] = compound: COc1cc2/c(=N/c3ccc(Br)cc3F)nc[nH]c2cc1OCC1CCN(C)CC1 [Vandetanib] + CS(=O)(=O)CCNCc1ccc(-c2ccc3ncnc(Nc4ccc(OCc5cccc(F)c5)c(Cl)c4)c3c2)o1 [Lapatinib] (partner 2 µM)
Method in brief: as §1

| Cell Line | relative viability ([1]; first compound 0.01 µM) | relative viability ([1]; first compound 0.03162 µM) | relative viability ([1]; first compound 0.1 µM) | relative viability ([1]; first compound 0.3162 µM) | relative viability ([1]; first compound 1 µM) | relative viability ([2]; first compound 0.005 µM) | relative viability ([2]; first compound 0.01581 µM) | relative viability ([2]; first compound 0.05 µM) | relative viability ([2]; first compound 0.1581 µM) | relative viability ([2]; first compound 0.5 µM) | relative viability ([3]; first compound 0.2 µM) | relative viability ([3]; first compound 0.6325 µM) | relative viability ([3]; first compound 2 µM) | relative viability ([4]; first compound 0.02 µM) | relative viability ([4]; first compound 0.06325 µM) | relative viability ([4]; first compound 0.2 µM) | relative viability ([4]; first compound 0.6325 µM) | relative viability ([4]; first compound 2 µM) |
| --- | --- | --- | --- | --- | --- | --- | --- | --- | --- | --- | --- | --- | --- | --- | --- | --- | --- | --- |
| 201T | 1.03 | 1.02 | 0.943 | 1.08 | 0.872 | 0.675 | 0.756 | 0.739 | 0.748 | 0.693 | 1.21 | 1.19 | 1.12 | 0.968 | 1.03 | 1.03 | 0.994 | 1.05 |
| LXF-289 | 0.895 | 0.915 | 0.97 | 0.915 | 0.694 | 0.601 | 0.726 | 0.716 | 0.706 | 0.577 | 0.966 | 0.966 | 0.803 | 0.899 | 0.842 | 0.89 | 0.871 | 0.887 |
